Consider one cell line from the supplement of paper PMC10307832.

Holding throughout (experiment): relative viability (nuclei count vs DMSO), 5 days (fraction); higher = more cells survive
Compound in test [1]: O[C@H]1CC[C@H](Nc2ncc3nc(Nc4c(F)cc(F)cc4F)n([C@H]4CCOC4)c3n2)CC1 [Tanzisertib] + Cc1cc(Nc2cc(N3CCN(C)CC3)nc(Sc3ccc(NC(=O)C4CC4)cc3)n2)n[nH]1 [Tozasertib] (partner 0.1 µM)
In short, it runs like this: (§1)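 Values are medians from duplicate plates. Each reflects relative viability, defined as the nuclei count of treated wells over that of vehicle wells. Lung cancer cell lines in 1536-well plates were pin-tool dosed one day after seeding with one drug alone or with a fixed anchor-drug dose plus five library-drug doses (not always all listed) in √10 steps, then fixed, stained and imaged at 4× after 5 days.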

Compound in test [2]: C1CNCCC1C2=CC(=NN2)C3=CC=NC=C3 + CC1(C)CCC(c2ccc(Cl)cc2)=C(CN2CCN(c3ccc(C(=O)NS(=O)(=O)c4ccc(N[C@H](CCN5CCOCC5)CSc5ccccc5)c(S(=O)(=O)C(F)(F)F)c4)cc3)CC2)C1 [Navitoclax] (partner 0.5 µM)
The method, boiled down:
as §1

Compound in test [3]: C[C@@H](N)c1ccc(C(=O)Nc2ccnc3[nH]ccc23)cc1 + Nc1nc2[nH]cc(CCc3ccc(C(=O)N[C@@H](CCC(=O)O)C(=O)O)cc3)c2c(=O)[nH]1 [Pemetrexed] (partner 0.2 µM)
In short, it runs like this:
as §1

Compound in test [4]: C[C@@H](N)c1ccc(C(=O)Nc2ccnc3[nH]ccc23)cc1 + Cc1nc(NC(=O)N2CCC[C@H]2C(N)=O)sc1-c1ccnc(C(C)(C)C(F)(F)F)c1 [Alpelisib] (partner 2 µM)
The method, boiled down: as §1

With UMC-11, the relative viability is 0.208 in test [1] (first compound 0.08 µM); 0.191 in test [1] (first compound 0.253 µM); 0.212 in test [1] (first compound 0.8 µM); 0.215 in test [1] (first compound 2.53 µM); 0.209 in test [1] (first compound 8 µM); 0.3 in test [2] (first compound 0.08 µM). Also, the relative viability in test [2] (first compound 0.8 µM) worked out at 0.344; in test [2] (first compound 2.53 µM), 0.321; in test [2] (first compound 8 µM), 0.355; in test [3] (first compound 0.04 µM), 0.915; in test [3] (first compound 0.1265 µM) it was 0.889; in test [3] (first compound 0.4 µM), 0.955. Moreover, the relative viability in test [3] (first compound 1.265 µM) was 0.764; in test [3] (first compound 4 µM), 0.498; in test [4] (first compound 0.04 µM), 1.12; in test [4] (first compound 0.1265 µM), 1.05; in test [4] (first compound 0.4 µM) it was 1.14; in test [4] (first compound 1.265 µM), 0.997. In addition, in test [4] (first compound 4 µM), the relative viability was determined as 0.467.
